Test: Precipitation in filtered concentrated cupric dilactate solution
Assay type: physicochemical
Conditions: cupric dilactate in water, sonicated, overnight 37° C., 0.45 μm filtered; over 3 weeks
Experimental: Increased concentrations of cupric dilactate were prepared for use in polymers to achieve higher loading. Excess of cupric dilactate in water (5 g in 10 ml) was prepared and sonicated for 30-120 minutes (15 minutes each x 2-8 times with 10 minutes break between each sonication session) and left overnight at 37° C. The solution obtained was cooled to room temperature and the green liquid containing cupric dilactate was separated from the undissolved cupric dilactate by aspiration and filtering through 0.45 μm syringe filter. […] This solution can be used for loading plugs, for example as described in Examples 1-3.

In the case of CC(O)C(=O)[O-].CC(O)C(=O)[O-].[Cu+2] (stereo not shown) [cupric dilactate], the “precipitate in the filtrate” value is reported as “No precipitate was observed”.

Reference: US20230145406A1, “DIVALENT METAL-CONTAINING BIOMATERIALS AND METHODS OF USE” (University of Oregon, priority 2021, published 2023)
